Results: publication PMC8008885 (Journal of Enzyme Inhibition and Medicinal Chemistry, 2021)

System: H3K9me3 occupancy in promoter regions
Assay: H3K9me3-ChIP sequencing of striatal tissue of YAC128 mice
Format: in vivo, mouse
Method: ChIP for H3K9me3 binding to DNA was performed using a CHIP assay kit (Santa Cruz, Dallas, TX) as described previously[21]^,[28]. Striatal tissues from WT, vehicle treated YAC128, and APQ-treated YAC128 mice were crossed-linked with 1% formaldehyde for 20 min at room temperature. Lysates were sonicated for 30 s six times using a Bioruptor (Diagenode Inc., Denville, NJ). After centrifugation, the supernatant was diluted in CHIP dilution buffer and incubated overnight at 4 °C with anti-H3K9me3 antibody. Immune complexes were recovered by the addition of 60 µl of salmon sperm DNA/protein A agarose-50% slurry and incubation at 4 °C for 2 h with rotation. Beads were pelleted and washed with low and high salt buffer followed by LiCl buffer (x3). Immune complexes were eluted by incubation with 500 µl of fresh elution buffer (1% SDS, 0.1 M NaHCO3) and 20 µl of 5 M NaCl. DNA was cleaned by the addition of 500 mM EDTA, 1 M Tris, and proteinase K at 66 °C for 4 h. The DNA solution was extracted with a phenol/chloroform/isoamyl alcohol mixture to remove protein contaminants, followed by precipitation with 100% ethanol. After precipitation, the pellet was washed with 70% ethanol and dissolved in 20 µl DW.
The Model-based Analysis of ChIP-Seq algorithm (MACS; v. 1.4.2) was used to identify regions of H3K9me3 enrichment with the default parameters. The peaks that pass a Poisson p values threshold of 0.1 were used for further analyses[28]^,[42]. In order to obtain reliable regions of enrichment, the regions detected in more than two samples were selected and aligned to define the consensus regions using DiffBind R package (v. 2.4.8)[43]. The reads in the consensus regions were counted and DESeq2 was applied to identify DMRs[44]. The DMRs were defined as p values of ≤.05 and only DMRs in promoter region (≤3 K from transcription start site) were selected.
Among the read peaks, a total of H3K9me3-enriched 71735 sites were commonly detected using MACS in WT, vehicle-treated YAC128, and APQ-treated YAC128 mice (using DiffBind R package). The reads were re-counted in the 71,735 sites (using DESeq2) and the H3K9me3-enriched sites in promoter region (≤3 K), with p values ≤.01 were selected. Then the H3K9me3-enriched sites with 1.5-fold higher in vehicle-treated YAC128 compared to WT and 1.5-fold lower in vehicle-treated YAC128 compared to APQ-treated YAC128 were finally selected.

With `C=CCOc1cccc2nc(N3CCCC3)ccc12` [APQ, 5-allyloxy-2-(pyrrolidin-1-yl)quinoline] the “number of targets with 1.5-fold decrease of H3K9me3 occupancy” value (APQ-treated vs vehicle-treated YAC128 mice) was 7060, the “H3K9me3 occupancy in the promoter region (–1 k to –3 kb)” value (APQ-treated vs vehicle-treated YAC128 mice, pie graph analysis) was “reduced” and the “Fold(YACEi/YAC) H3K9me3 ChIP occupancy” value (Gripap1, Promoter (1-2kb), chrX_7787762_7788457, APQ-treated YAC vs YAC mice striatum) was -2.38. For the same compound, the “Fold(YACEi/YAC)” value (H3K9me3 ChIP peak chr1_71652484_71652752, Apol7d, Promoter (<=1kb)) was -3.31, the “Fold(YACEi/YAC)” value (H3K9me3 ChIP peak chr1_131908530_131908816, Nucks1, Promoter (1-2kb)) was -4.01 and the “Fold(YACEi/YAC)” value (H3K9me3 ChIP peak chr1_153487828_153488249, Dhx9, Promoter (<=1kb)) was -2.43. The “Fold(YACEi/YAC)” value (H3K9me3 ChIP peak chr2_5015774_5016013, Mcm10, Promoter (2-3kb)) was -3.52, the “Fold(YACEi/YAC)” value (H3K9me3 ChIP peak chr3_35666243_35666969, Gm6639, Promoter (<=1kb)) was -3.37 and the “Fold(YACEi/YAC)” value (H3K9me3 ChIP peak chr3_38487666_38488045, Ankrd50, Promoter (2-3kb)) was -2.49. The “Fold(YACEi/YAC)” value (H3K9me3 ChIP peak chr3_81977204_81977533, Tdo2, Promoter (1-2kb)) was -3.71, the “Fold(YACEi/YAC)” value (H3K9me3 ChIP peak chr3_92487863_92488097, Sprr1a, Promoter (1-2kb)) was -3.63 and the “Fold(YACEi/YAC)” value (H3K9me3 ChIP peak chr3_101112649_101113010, Ptgfrn, Promoter (2-3kb)) was -3.89. The “Fold(YACEi/YAC)” value (H3K9me3 ChIP peak chr4_3653408_3653656, 2210414B05Rik, Promoter (2-3kb)) was -3.07, the “Fold(YACEi/YAC)” value (H3K9me3 ChIP peak chr4_55418287_55418885, Gm12505, Promoter (<=1kb)) was -2.83 and the “Fold(YACEi/YAC)” value (H3K9me3 ChIP peak chr4_73631010_73633171, Gm11236, Promoter (2-3kb)) was -3.46. The “Fold(YACEi/YAC)” value (H3K9me3 ChIP peak chr4_96141001_96141325, Cyp2j12, Promoter (<=1kb)) was -3.49, the “Fold(YACEi/YAC)” value (H3K9me3 ChIP peak chr5_147954155_147954429, Mtus2, Promoter (2-3kb)) was -3.24 and the “Fold(YACEi/YAC)” value (H3K9me3 ChIP peak chr6_8194240_8194734, Col28a1, Promoter (1-2kb)) was -2.03. The “Fold(YACEi/YAC)” value (H3K9me3 ChIP peak chr6_40902902_40903167, Prss58, Promoter (2-3kb)) was -3.27, the “Fold(YACEi/YAC)” value (H3K9me3 ChIP peak chr6_52209895_52210445, Hoxa6, Promoter (1-2kb)) was -2.02 and the “Fold(YACEi/YAC)” value (H3K9me3 ChIP peak chr6_57158878_57159171, Vmn1r12, Promoter (<=1kb)) was -3.18. The “Fold(YACEi/YAC)” value (H3K9me3 ChIP peak chr6_82941890_82942092, Sema4f, Promoter (2-3kb)) was -3.56, the “Fold(YACEi/YAC)” value (H3K9me3 ChIP peak chr6_88462374_88462646, Ruvbl1, Promoter (2-3kb)) was -3.04 and the “Fold(YACEi/YAC)” value (H3K9me3 ChIP peak chr6_116583898_116584203, Olfr215, Promoter (<=1kb)) was -2.33. The “Fold(YACEi/YAC)” value (H3K9me3 ChIP peak chr7_20869153_20870151, Vmn1r116, Promoter (2-3kb)) was -3.02, the “Fold(YACEi/YAC)” value (H3K9me3 ChIP peak chr7_28539372_28539811, Sycn, Promoter (1-2kb)) was -2.21 and the “Fold(YACEi/YAC)” value (H3K9me3 ChIP peak chr7_30914737_30915034, Mag, Promoter (<=1kb)) was -2.46. For the same compound, the “Fold(YACEi/YAC)” value (H3K9me3 ChIP peak chr7_106081077_106081480, Gm8979, Promoter (1-2kb)) was -3.34, the “Fold(YACEi/YAC)” value (H3K9me3 ChIP peak chr7_108053741_108053948, Olfr479, Promoter (1-2kb)) was -2.28 and the “Fold(YACEi/YAC)” value (H3K9me3 ChIP peak chr7_140154755_140155139, Sprn, Promoter (<=1kb)) was -2.42. The “Fold(YACEi/YAC)” value (H3K9me3 ChIP peak chr8_67493810_67494076, Nat2, Promoter (<=1kb)) was -2.63, the “Fold(YACEi/YAC)” value (H3K9me3 ChIP peak chr9_39238856_39239153, Olfr1537, Promoter (<=1kb)) was -2.72 and the “Fold(YACEi/YAC)” value (H3K9me3 ChIP peak chr10_75351156_75351507, Gm5779, Promoter (<=1kb)) was -3.41. The “Fold(YACEi/YAC)” value (H3K9me3 ChIP peak chr10_78963256_78963630, Olfr1353, Promoter (<=1kb)) was -2.79, the “Fold(YACEi/YAC)” value (H3K9me3 ChIP peak chr10_85919134_85919418, Prdm4, Promoter (1-2kb)) was -2.28 and the “Fold(YACEi/YAC)” value (H3K9me3 ChIP peak chr10_130212472_130212863, Olfr827, Promoter (1-2kb)) was -3.69. The “Fold(YACEi/YAC)” value (H3K9me3 ChIP peak chr11_6231887_6232152, Npc1l1, Promoter (1-2kb)) was -3.31, the “Fold(YACEi/YAC)” value (H3K9me3 ChIP peak chr11_70351943_70352224, Alox15, Promoter (<=1kb)) was -2.33 and the “Fold(YACEi/YAC)” value (H3K9me3 ChIP peak chr14_7570803_7571731, Gm3558, Promoter (2-3kb)) was -3.02. The “Fold(YACEi/YAC)” value (H3K9me3 ChIP peak chr14_50785599_50785931, Ttc5, Promoter (<=1kb)) was -3.3, the “Fold(YACEi/YAC)” value (H3K9me3 ChIP peak chr14_51147689_51148262, Rnase1, Promoter (<=1kb)) was -2.5 and the “Fold(YACEi/YAC)” value (H3K9me3 ChIP peak chr14_67860151_67860425, Mir6539, Promoter (<=1kb)) was -2.31. For the same compound, the “Fold(YACEi/YAC)” value (H3K9me3 ChIP peak chr14_74972279_74972456, Gm4278, Promoter (2-3kb)) was -3.57, the “Fold(YACEi/YAC)” value (H3K9me3 ChIP peak chr16_17917614_17917958, Gsc2, Promoter (2-3kb)) was -3.59 and the “Fold(YACEi/YAC)” value (H3K9me3 ChIP peak chr17_18913933_18914613, Vmn2r97, Promoter (<=1kb)) was -3.35. For the same compound, the “Fold(YACEi/YAC)” value (H3K9me3 ChIP peak chr17_33553505_33553673, Myo1f, Promoter (2-3kb)) was -3.41, the “Fold(YACEi/YAC)” value (H3K9me3 ChIP peak chr17_37114518_37114958, Olfr92, Promoter (2-3kb)) was -2.4 and the “Fold(YACEi/YAC)” value (H3K9me3 ChIP peak chr17_37485182_37485483, H2-M2, Promoter (1-2kb)) was -3.71. The “Fold(YACEi/YAC)” value (H3K9me3 ChIP peak chr17_47927455_47927829, Foxp4, Promoter (2-3kb)) was -2.83, the “Fold(YACEi/YAC)” value (H3K9me3 ChIP peak chr19_24902268_24902717, Foxd4, Promoter (<=1kb)) was -2.16 and the “Fold(YACEi/YAC)” value (H3K9me3 ChIP peak chrX_5469564_5470151, Mycs, Promoter (<=1kb)) was -2.41. For the same compound, the “Fold(YACEi/YAC)” value (H3K9me3 ChIP peak chrX_6399655_6400248, Shroom4, Promoter (<=1kb)) was -2.29, the “Fold(YACEi/YAC)” value (H3K9me3 ChIP peak chrX_7571434_7571820, Flicr, Promoter (1-2kb)) was -4.01 and the “Fold(YACEi/YAC)” value (H3K9me3 ChIP peak chrX_10118097_10118554, Srpx, Promoter (<=1kb)) was -2.46. The “Fold(YACEi/YAC)” value (H3K9me3 ChIP peak chrX_10714202_10714657, Mid1ip1, Promoter (2-3kb)) was -2.68.
